Read-outs that look alike come from different tables or passages of the source. One block for each compound: values may come before it. Square brackets hold non-standard residues; d marks the D form. Peptide text beside a SMILES is read from it. Nrpe = C[C@@H](NCC(=O)O)c1ccccc1; Nspe = C[C@H](NCC(=O)O)c1ccccc1; NDecylGly = CCCCCCCCCCNCC(=O)O; NPentylGly = CCCCCNCC(=O)O; Nlys = NCCCCNCC(=O)O
Legend:
human erythrocytes = test: Hemolysis assay; type: cell-based
Experimental: Hemolysis assays. Erythrocytes were isolated from freshly drawn, heparanized human blood and resuspended to 20 vol % in PBS (pH 7.4). In a 96-well microtiter plate, 100 μL erythrocyte suspension was added to 100 μL peptoid solution in PBS (prepared by 1:2 serial dilutions), or 100 μL PBS in the case of negative controls. 100% hemolysis wells contained 100 μL blood cell suspension with 100 μL 0.2 vol % Triton X-100. The plate was incubated for 1 h at 37° C., then each well was diluted with 150 μL PBS. The plate was then centrifuged at 1200 g for 15 min, 100 μL of the supernatant from each well transferred to a fresh microtiter plate, and A350 measured.
Hemolysis assays. Erythrocytes were isolated from freshly drawn, heparanized human blood and resuspended in PBS (pH 7.4) to make a 20% volume suspension. Peptoid solutions were prepared by serial dilution (2:1) in a 96-well microtiter plate. For test wells, 100 μL of erythrocyte suspension was added to 100 μL of peptoid solution in PBS; PBS without peptoid was used as the negative control and 0.2 vol % Triton X-100 as the positive control that indicates 100% hemolysis. After 1 hour incubation at 37° C., each well was diluted with 150 μL PBS. Plates were then centrifuged at 1,200×g for 15 minutes to pellet the cells. 30 μL of the supernatant from each well were transferred to the corresponding well of a second 96-well plate that contains 70 μL PBS.

E. coli = type: cell-based
Experimental: (§1) Antibacterial assays. MICs were determined according to CLSI M7-A6 protocols in a 96-well microtiter plate. In test wells, 50 μL bacterial inoculum (5×10^5 CFU/ml) in Mueller-Hinton broth (MHB) was added to 50 μL peptoid solution in MHB (prepared by 1:2 serial dilutions). Positive controls contained 50 μL inoculum and 50 μL MHB without peptoid. […] MIC values reported were reproducible between three independent experimental replicates, each consisting of two parallel trials. Broad-spectrum antimicrobial susceptibility testing was performed against BSL2 pathogens by Nova Biologicals, Inc. (Conroe, Tex.).
(§2) Screening antibacterial assays. MICs were determined in 96-well microtiter plates in accordance with CLSI M7-A6 protocols. Peptoid solutions with 50 μL total volume were prepared using 2:1 serial dilutions. 50 μL of bacteria inoculum (1×10^6 CFU/mL) prepared in cation-adjusted Mueller-Hinton broth (CAMHB) was added to test wells. Control wells contained 100 μL MHB (no growth) or 50 μL inoculums with 50 μL MHB with no peptoid. […] Reported values were reproducible over three experiments, each containing two parallel trials.

B. subtilis = type: cell-based
Experimental: as §1, §2

[1] = system: Candida albicans (SC5314); type: cell-based, C. albicans; settings: SC5314
Experimental: Additionally, in order to characterize possible antifungal activity, a library of alkylated compounds was tested against C. albicans, a representative fungal strain.
Antifungal Assays. MICs were determined using the broth microdilution assay given by CLSI M27-A2 protocols. Candida albicans (SC5314) was grown on Sabouraud dextrose agar for 24 hours at 30° C. Cells were suspended in 0.145 M saline, and the cell concentration was adjusted to 3×10^6 cells/mL. After adjusting the cell concentration, the suspension was diluted 1:1000 with RPMI 1640 (with L-glutamine and without sodium bicarbonate, Invitrogen) buffered with 0.145 M 3-(N-morpholino) propanesulfonic acid (MOPS). Two-fold serial dilutions of peptoids, peptides, and amphotericin B (Calbiochem) were prepared in RPMI 1640 and mixed with an equal volume of the cell suspension in 96-well plates. The final testing concentrations for the peptoids and peptides were 0.20 to 100 μM, and concentrations for amphotericin B were 0.031 to 16 μM. Growth controls and sterility controls were also included. Plates were incubated for 48 hours at 35° C., and growth of C. albicans was inspected visually to determine the MICs. The MIC for each compound was defined as the lowest concentration with no visible fungal growth. Experiments were performed in duplicate on two separate days.

[2] = MTS assay, metabolic inhibition; type: cell-based, mouse
Experimental: (§3) The potencies of all compounds were determined against representative Gram-negative (E. coli ATCC 35218) and Gram-positive (B. subtilis ATCC 6633) biosafety level 1 (BSL1) organisms. In addition to hemolytic activity, the conventional measure of toxicity to mammalian cells, the effect of each ampetoid on NIH 3T3 mouse fibroblast cells was determined using the MTS tetrazolium salt-based calorimetric assay. While hemolysis measures the degree to which erythrocytes are lysed, the MTS assay indirectly quantifies the extent to which cellular metabolic activity is inhibited.
MTS assays. NIH/3T3 cells (ATCC Corporation) cultured at 37° C. and 5% CO2 in complete Dulbecco's modified eagle's media (CDMEM) supplemented with 1% sodium pyruvate, 1% penicillin-streptomycin, 1.5 g/L NaHCO3, and 10% fetal bovine serum. Cells were seeded at a density of 5,000 cells per well for NIH/3T3 cells in 96-well plates (100 μl total volume). A peptoid solution plate (100 μL total volume per well) was prepared by serial dilution of aqueous peptoid stock solution in Hank's balanced salt solution (HBSS) media. The day-old cell monolayers were washed with HBSS and media was replaced with 100 μL HBSS. The contents of the peptoid solution plate were transferred onto corresponding wells of the cell monolayer plate, and 40 μL MTS reagent (Promega, Inc.) was added to each well. After incubating for 3 hours at 37° C., absorbance at 490 nm was determined. […] The average of six replicates is reported.

B. subtilis (ATCC 6633) = type: cell-based; settings: ATCC 6633
Experimental: (§4) Whereas the preceding generation of molecules was designed to elucidate structure function relationships of specific molecular parameters (chirality, length, hydrophobicity, etc.), another generation compounds were designed explicitly to explore effects on selectivity. Antimicrobial activity of these compounds was tested against bacterial strains E. coli (ATTC 35218) and B. subtilis (ATTC 6633) in cation-adjusted MHB using the microdilution protocols previously described. The sequences, antimicrobial activities, hemolytic activities, and metabolic inhibitory concentrations against NIH 3T3 mouse fibroblast cells are summarized in Table 3 and the rationale of their design is described below.
as §3, §2

E. coli (ATCC 35218) = type: cell-based; settings: ATCC 35218
Experimental: as §4, §3, §2

- E. coli MIC (E. coli): >100 µM
- B. subtilis MIC (B. subtilis): 6.3 µM
- C. albicans MIC [1]: 100 µM
SMILES: CCCCCCCCCCNCC(=O)N(CCCCN)CC(=O)N(CC(=O)N(CC(=O)N(CCCCN)CC(N)=O)[C@@H](C)c1ccccc1)[C@@H](C)c1ccccc1 [C10-14 mer] (H-[NDecylGly][Nlys][Nspe][Nspe][Nlys]-NH2)
- HD10 (human erythrocytes): >200/>200 μM
- HD50 (human erythrocytes): >200/>200 μM

- IC50 [2]: 15 µM
- B. subtilis MIC (B. subtilis (ATCC 6633)): 1.6 µM
- E. coli MIC (E. coli (ATCC 35218)): 6.3 µM
SMILES: C[C@@H](c1ccccc1)N(CC(N)=O)C(=O)CN(C(=O)CN(CCCCN)C(=O)CN(Cc1ccccc1)C(=O)CN(Cc1ccccc1)C(=O)CN(CCCCN)C(=O)CN(C(=O)CN(C(=O)CN(CCCCN)C(=O)CN(Cc1ccccc1)C(=O)CN(Cc1ccccc1)C(=O)CNCCCCN)[C@@H](C)c1ccccc1)[C@@H](C)c1ccccc1)[C@@H](C)c1ccccc1 [1-Npm2,3,8,9, H-(Nlys-Npm-Npm-Nlys-Nspe-Nspe)2-NH2]
- HD50 (human erythrocytes): > 200 µM

- IC50 [2]: 83 µM
- B. subtilis MIC (B. subtilis (ATCC 6633)): 0.78 µM
- E. coli MIC (E. coli (ATCC 35218)): 50 µM
SMILES: C[C@H](NCC(=O)N(CCCCN)CC(=O)N(CC(=O)N(CCCCN)CC(=O)N(CCCCN)CC(=O)N(CC(=O)N(CC(=O)N(CCCCN)CC(=O)N(CC(=O)N(CCCCN)CC(=O)N(CCCCN)CC(=O)N(CC(N)=O)[C@@H](C)c1ccccc1)[C@@H](C)c1ccccc1)[C@@H](C)c1ccccc1)[C@@H](C)c1ccccc1)[C@@H](C)c1ccccc1)c1ccccc1 [1B-Nlys4,10, H-(Nspe-Nlys-Nspe-Nlys-Nlys-Nspe)2-NH2] (H-[Nspe][Nlys][Nspe][Nlys][Nlys][Nspe][Nspe][Nlys][Nspe][Nlys][Nlys][Nspe]-NH2)
- HD10 (human erythrocytes): >200/>200 μM
- HD50 (human erythrocytes): >200/>200 μM

- IC50 [2]: 5.6 µM
- B. subtilis MIC (B. subtilis (ATCC 6633)): 0.78 µM
- E. coli MIC (E. coli (ATCC 35218)): 3.1 µM
SMILES: C[C@@H](c1ccccc1)N(CC(=O)N(CCCCN)CC(=O)N(CC(=O)N(CC(=O)N(CCCCN)CC(=O)N(CC(=O)N(CC(=O)N(CCCCN)CC(=O)N(CC(=O)N(CC(=O)N(CCCCN)CC(N)=O)[C@@H](C)c1ccccc1)[C@@H](C)c1ccccc1)[C@@H](C)c1ccccc1)[C@@H](C)c1ccccc1)[C@@H](C)c1ccccc1)[C@@H](C)c1ccccc1)C(=O)CN(C(=O)CNCCCCN)[C@@H](C)c1ccccc1 [113mer, H-(Nlys-Nspe-Nspe)4-Nlys-NH2] (H-[Nlys][Nspe][Nspe][Nlys][Nspe][Nspe][Nlys][Nspe][Nspe][Nlys][Nspe][Nspe][Nlys]-NH2)
- HD10 (human erythrocytes): 21 µM
- HD50 (human erythrocytes): > 100 µM

Second part, the compound before the results:

SMILES: CCCCCNCC(=O)N(CCCCN)CC(=O)N(CC(=O)N(CC(=O)N(CCCCN)CC(=O)N(CC(=O)N(CC(=O)N(CCCCN)CC(=O)N(CC(=O)N(CC(N)=O)[C@@H](C)c1ccccc1)[C@@H](C)c1ccccc1)[C@@H](C)c1ccccc1)[C@@H](C)c1ccccc1)[C@@H](C)c1ccccc1)[C@@H](C)c1ccccc1 [C5-19 mer] (H-[NPentylGly][Nlys][Nspe][Nspe][Nlys][Nspe][Nspe][Nlys][Nspe][Nspe]-NH2)
- HD10 (human erythrocytes): 65 µM
- HD50 (human erythrocytes): > 200 µM
- E. coli MIC (E. coli): 16.3 µM
- B. subtilis MIC (B. subtilis): 1.0 µM
- C. albicans MIC [1]: 12.5 µM

SMILES: C[C@H](c1ccccc1)N(CC(=O)N(CC(N)=O)[C@@H](C)c1ccccc1)C(=O)CN(CCCCN)C(=O)CN(C(=O)CN(C(=O)CN(CCCCN)C(=O)CN(C(=O)CN(C(=O)CN(CCCCN)C(=O)CN(C(=O)CN(C(=O)CNCCCCN)[C@H](C)c1ccccc1)[C@@H](C)c1ccccc1)[C@H](C)c1ccccc1)[C@@H](C)c1ccccc1)[C@H](C)c1ccccc1)[C@@H](C)c1ccccc1 [1-Nrpe2,5,8,11, H-(Nlys-Nrpe-Nspe)4-NH2] (H-[Nlys][Nrpe][Nspe][Nlys][Nrpe][Nspe][Nlys][Nrpe][Nspe][Nlys][Nrpe][Nspe]-NH2)
- IC50 ([2]; Table 6, NIH 3T3 mouse fibroblast cells): 5.2 µM
- HD10 (human erythrocytes; Table 6): 22 µM
- HD50 (human erythrocytes; Table 6): 95 µM
- B. subtilis MIC (B. subtilis (ATCC 6633); Table 6): 1.6 µM
- E. coli MIC (E. coli (ATCC 35218); Table 6): 6.3 µM

SMILES: C[C@@H](c1ccccc1)N(CC(N)=O)C(=O)CN(C(=O)CN(CCCCN)C(=O)[C@@H]1CCCN1C(=O)CN(C(=O)CN(CCCCN)C(=O)CN(C(=O)CN(C(=O)CN(CCCCN)C(=O)[C@@H]1CCCN1C(=O)CN(C(=O)CNCCCCN)[C@@H](C)c1ccccc1)[C@@H](C)c1ccccc1)[C@@H](C)c1ccccc1)[C@@H](C)c1ccccc1)[C@@H](C)c1ccccc1 [1-Pro3,9, H-(Nlys-Nspe-L-Pro-Nlys-Nspe-Nspe)2-NH2] (H-[Nlys][Nspe]P[Nlys][Nspe][Nspe][Nlys][Nspe]P[Nlys][Nspe][Nspe]-NH2)
- IC50 [2]: 71 µM
- HD10 (human erythrocytes): >200/>200 μM
- HD50 (human erythrocytes): >200/>200 μM
- B. subtilis MIC (B. subtilis (ATCC 6633)): 1.6 µM
- E. coli MIC (E. coli (ATCC 35218)): 50 µM

SMILES: C[C@@H](c1ccccc1)N(CC(N)=O)C(=O)CN(C(=O)CN(CCCCN)C(=O)CN(C(=O)CN(C(=O)CN(CCCCN)C(=O)CN(C(=O)CN(C(=O)CN(CCCCN)C(=O)[C@@H]1CCCN1C(=O)CN(C(=O)CNCCCCN)[C@@H](C)c1ccccc1)[C@@H](C)c1ccccc1)[C@@H](C)c1ccccc1)[C@@H](C)c1ccccc1)[C@@H](C)c1ccccc1)[C@@H](C)c1ccccc1 [1-Pro3, H-Nlys-Nspe-L-Pro-(Nlys-Nspe-Nspe)3-NH2] (H-[Nlys][Nspe]P[Nlys][Nspe][Nspe][Nlys][Nspe][Nspe][Nlys][Nspe][Nspe]-NH2)
- IC50 [2]: 12 µM
- HD10 (human erythrocytes): 74 µM
- HD50 (human erythrocytes): > 200 µM
- B. subtilis MIC (B. subtilis (ATCC 6633)): 1.6 µM
- E. coli MIC (E. coli (ATCC 35218)): 12.5 µM

SMILES: C[C@@H](c1ccccc1)N(CC(=O)N(CCCCN)CC(=O)N(CC(=O)N(CC(=O)N(CCCCN)CC(=O)N(CC(=O)N(CC(=O)N(CCCCN)CC(N)=O)[C@@H](C)c1ccccc1)[C@@H](C)c1ccccc1)[C@@H](C)c1ccccc1)[C@@H](C)c1ccccc1)C(=O)CN(C(=O)CNCCCCN)[C@@H](C)c1ccccc1 [110mer, H-(Nlys-Nspe-Nspe)3-Nlys-NH2] (H-[Nlys][Nspe][Nspe][Nlys][Nspe][Nspe][Nlys][Nspe][Nspe][Nlys]-NH2)
- IC50 [2]: 54 µM
- HD50 (human erythrocytes): >200/>200 μM
- B. subtilis MIC (B. subtilis (ATCC 6633)): 0.78 µM
- E. coli MIC (E. coli (ATCC 35218)): 12.5 µM

From US20100036088A1, “Selective poly-N-substituted glycine antibiotics” (priority 2008, published 2010)
